# Values quoted from earlier work, collected in US20110229584A1, “Compound for the control of herpes simplex virus using glycyrrhizic acid, lipoic acid, allantoin, and slippery elm” (priority 2010, published 2011).
# Legend:
# [1] = system: human aortic endothelial cells
# [2] = system: severe acute respiratory syndrome (SARS)
# HSV-1 [3] = system: HSV-1
# HSV-1 [4] = conditions: applied topically to infected epidermal areas
# zoster = conditions: incubated with the viruses for more than 30 minutes
# Epstein-Barr = conditions: incubated with the viruses for more than 30 minutes
# HSV-2 = conditions: incubated with the viruses for more than 30 minutes
# HSV-1 [5] = system: HSV-1; remark: listed apart in the source
structure (smiles),measurement,setting,value
"O=C(O)CCCCC1CCSS1 (stereo not drawn) [Lipoic acid, alpha-Lipoic acid]",LPS-caused expression of cellular adhesion molecules and adherence of monocytes to human aortic endothelial cells,[1],inhibit
same,LPS-triggered NF-B DNA binding activities,[1],inhibited
"CCCCCCCCCCCCCCCCCCCCCCO [Docosanol, docosanol]",decrease of mean time of healing,"HSV; both treatment phases, applied early in the stages of infection",more than 50%
same,healing time of first episodes with treatment (average),HSV; first episodes,5.4 days
same,reduction of healing times of first episodes (average),"HSV; first episodes, from 7.3 days",1.9 days
CC1(C)[C@@H](O)CC[C@]2(C)[C@H]3C(=O)C=C4[C@@H]5C[C@@](C)(C(=O)O)CC[C@]5(C)CC[C@@]4(C)[C@]3(C)CC[C@@H]12 [glycrrhetic acid],inhibition of severe acute respiratory syndrome (SARS),[2],inhibit
Nc1nc2c(ncn2CCC(CO)CO)c(=O)[nH]1 [Penciclovir],decrease of pain duration,HSV-1 [3]; from 4.1 days,0.6 days
same,healing time of the lesions with treatment,HSV-1 [3]; treated group,4.8 days
same,pain duration with treatment,HSV-1 [3]; treated group,3.5 days
same,lesion virus shedding,HSV-1 [3]; versus placebo,marginally changed
same,healing of the lesions faster versus placebo,HSV-1 [3]; versus placebo 5.5 days,0.7 days
"Cl.NCCCC[C@H](N)C(=O)O [Lysine monohydrochloride, L-Lysine Monohydrochloride]",inactivation of HSV-1,HSV-1 [4],not to be able to inactivate
CC1(C)[C@@H](O[C@H]2O[C@H](C(=O)O)[C@@H](O)[C@H](O)[C@H]2O[C@@H]2O[C@H](C(=O)O)[C@@H](O)[C@H](O)[C@H]2O)CC[C@]2(C)[C@H]3C(=O)C=C4[C@@H]5C[C@@](C)(C(=O)O)CC[C@]5(C)CC[C@@]4(C)[C@]3(C)CC[C@@H]12 [Glycyrrhizic acid],inactivation of zoster,zoster,more than 90%
same,inactivation of Epstein-Barr,Epstein-Barr,more than 90%
same,inactivation of HSV-2,HSV-2,more than 90%
same,growth and cytopathic effect of vaccinia,vaccinia,inhibit
same,deactivation of HSV,Herpes simplex (HSV),irreversibly deactiveate
same,growth and cytopathic effect of Herpes simplex (HSV),Herpes simplex (HSV),inhibit
same,growth and cytopathic effect of Newcastle's Disease,Newcastle's Disease,inhibit
same,growth and cytopathic effect of vesicular viomantitis,vesicular viomantitis,inhibit
same,inhibition of severe acute respiratory syndrome (SARS),[2],inhibit
same,activity against in vivo HSV-1,HSV-1 [5]; in vivo,strong activity
same,resistance of thermally injured mice to HSV-1,HSV-1 [5]; thermally injured mice,improve
